Experimental findings from PMC3199943, “Screening the MayBridge Rule of 3 Fragment Library for Compounds That Interact with the Trypanosoma brucei myo-Inositol-3-Phosphate Synthase and/or Show Trypanocidal Activity” (Molecular Biology International, 2011) are described below.

The subject of one experiment is A549 cells. Kind of experiment: Cytotoxicity against A549 cells, Alamar Blue. Conditions: Supplementary Table 1, compound 0.5 mM, percentage of controls (n=1); for viability at 500 µM: Homo sapiens, A549, 65 h. In kind it is cell-based. An outline of the steps:
(§1)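 Viability by Alamar Blue (5 h) after ~65 h drug treatment; seeding density 2 × 10^4 cells/well in DMEM supplemented with 10% FCS and 2 mM L-Glutamine.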
A general note: Resazurin is reduced to fluorescent resorufin, in cell work by metabolically active cells.

A further experiment concerns HeLa cells. Kind of experiment: cells. Conditions: for HeLa Cells Alamar Blue: Supplementary Table 1; for viability at 500 µM: Homo sapiens, HeLa, 65 h. The method, boiled down: as §1
Where [1] appears, read: compound 0.5 mM, percentage of controls, mean ± SD (n=3) or SE (n=2).
Setting [2] is: read-out: HeLa Cells Alamar Blue.
Setting [3] is: read-out: HeLa Cells Alamar Blue, Supplementary Table 1, compound 0.5 mM, percentage of controls, mean ± SD (n=3) or SE (n=2).

Read-outs that look alike come from different tables or passages of the source.

As for `CNCc1scc2c1OCCO2` [compound 495, N‐(2,3‐dihydrothieno[3,4‐b][1,4]dioxin‐5‐ylmethyl)‐N‐methylamine], in the experiment on A549 cells, the “A549 Cells Alamar Blue” value is listed as 96.9 percentage of controls. Also, in the experiment with HeLa cells (setting [1]), the “HeLa Cells Alamar Blue” value is reported as 43.6 ± 17.7 percentage of controls.
As for `Cc1cc(N)ccc1C(C)C.Cl` [compound 497, 4‐isopropyl‐3‐methylaniline hydrochloride], the “A549 Cells Alamar Blue” value with A549 cells is 115.7 percentage of controls. In addition, the “HeLa Cells Alamar Blue” value in the experiment on HeLa cells (setting [1]) is reported as 90.1 ± 2.1 percentage of controls.
Regarding `Cc1cc(C(F)(F)F)c(C#N)cn1` [compound 498, 6‐methyl‐4‐(trifluoromethyl)nicotinonitrile], the “A549 Cells Alamar Blue” value in the experiment on A549 cells is listed as 107.7 percentage of controls. The “HeLa Cells Alamar Blue” value in the experiment on HeLa cells (setting [1]) is reported as 102.9 ± 18.5 percentage of controls.
With `FC(F)(F)c1nc2ccccc2[nH]1` [compound 499, 2‐(trifluoromethyl)‐1H‐benzo[d]imidazole], the viability at 500 µM in the experiment with A549 cells is 116%; with HeLa cells (setting [2]), 82 ± 14.1%.
Turning to `N#Cc1ccc(N)cc1C(F)(F)F` [compound 500, 4‐amino‐2‐(trifluoromethyl)benzonitrile], the viability at 500 µM in the experiment on A549 cells stood at 72.8%; in the experiment on HeLa cells (setting [2]), 51 ± 10.6%.
In the case of `Oc1ccc(Oc2ccccc2)cc1` [compound 502, 4‐phenoxyphenol], the results for the viability at 500 µM in the experiment with A549 cells and with HeLa cells (setting [3]) were 53.1% and 39.6 ± 16.6%, respectively.
For the compound `CC(=O)c1ccc(-n2ccnc2)cc1` [compound 503, 1‐[4‐(1H‐imidazol‐1‐yl)phenyl]‐1‐ethanone], the “A549 Cells Alamar Blue” value in the experiment on A549 cells is 94.5 percentage of controls. Moreover, the “HeLa Cells Alamar Blue” value in the experiment with HeLa cells (setting [1]) is listed as 69.7 ± 7.3 percentage of controls.
Turning to `OCc1cccc(-c2cncnc2)c1` [compound 504, (3‐pyrimidin‐5‐ylphenyl)methanol], the viability at 500 µM is 88.2% with A549 cells and 88.7 ± 9.9% with HeLa cells (setting [2]).
Consider `OCc1ccc(-c2cncnc2)cc1` [compound 505, (4‐pyrimidin‐5‐ylphenyl)methanol], for which the viability at 500 µM in the experiment on A549 cells is 85.3%; in the experiment with HeLa cells (setting [2]), 78.6 ± 20%.
Take `Nc1ccc(Oc2ccccc2)nc1` [compound 507, 6‐phenoxy‐3‐pyridinamine]: the viability at 500 µM amounted to 71.8% in the experiment on A549 cells and 103 ± 15.4% with HeLa cells (setting [2]).
On to `O=C(O)c1ccc(-n2cccc2)cc1` [compound 512, 4‐(1H‐pyrrol‐1‐yl)benzoic acid], for which the viability at 500 µM with A549 cells was 63.2%; with HeLa cells (setting [2]), 97.5 ± 13.1%.
In the case of `COC(=O)c1cc2ccccc2cn1` [compound 514, methyl isoquinoline‐3‐carboxylate], the viability at 500 µM worked out at 65.3% with A549 cells and 79.5 ± 14.3% in the experiment on HeLa cells (setting [2]).
Take `COC(=O)c1ccc2ncccc2c1` [compound 515, methyl quinoline‐6‐carboxylate]: the viability at 500 µM in the experiment on A549 cells was 67.8%; in the experiment on HeLa cells (setting [2]), 69.9 ± 8.1%.
Consider `N#Cc1ccc(N2CCNCC2)cc1` [compound 518, 4‐Piperazin‐1‐yl‐benzonitrile], for which the viability at 500 µM in the experiment with A549 cells stood at 84.7%; with HeLa cells (setting [2]) it was 92.1 ± 11%.
Regarding `NC(=O)Cc1ccc(F)cc1Cl` [compound 519, 2‐(2‐chloro‐4‐fluorophenyl)acetamide], the viability at 500 µM with A549 cells amounted to 102%; in the experiment on HeLa cells (setting [2]), 98.3 ± 15.4%.
Take `Cc1c(CO)cnn1-c1ccccc1` [compound 523, (5‐methyl‐1‐phenyl‐1H‐pyrazol‐4‐yl)methanol]: in the experiment with A549 cells, the “A549 Cells Alamar Blue” value is given as 57.2 percentage of controls. For the same compound, the “HeLa Cells Alamar Blue” value in the experiment on HeLa cells (setting [1]) is listed as 75.9 ± 13.5 percentage of controls.
Consider `Cn1nc(-c2ccccc2)cc1CO` [compound 524, (1‐methyl‐3‐phenyl‐1H‐pyrazol‐5‐yl)methanol], for which the “A549 Cells Alamar Blue” value with A549 cells is reported as 60.7 percentage of controls. The “HeLa Cells Alamar Blue” value in the experiment with HeLa cells (setting [1]) is 88.2 ± 10.3 percentage of controls.
Consider `Cn1nc(CO)cc1-c1ccccc1` [compound 525, (1‐methyl‐5‐phenyl‐1H‐pyrazol‐3‐yl)methanol], for which the “A549 Cells Alamar Blue” value in the experiment with A549 cells is 64.6 percentage of controls. The “HeLa Cells Alamar Blue” value in the experiment with HeLa cells (setting [1]) was 64.8 ± 9.8 percentage of controls.
`OCc1nccn1Cc1ccccc1` [compound 526, (1‐benzyl‐1H‐imidazol‐2‐yl)methanol]: the viability at 500 µM in the experiment with A549 cells was determined as 58%; in the experiment with HeLa cells (setting [2]), 81 ± 13.3%.
For `OCc1cccc(Cn2ccnc2)c1` [compound 527, [3‐(1H‐imidazol‐1‐ylmethyl)phenyl]methanol], in the experiment on A549 cells, the “A549 Cells Alamar Blue” value was 69.2 percentage of controls. Also, in the experiment with HeLa cells (setting [1]), the “HeLa Cells Alamar Blue” value is 80.7 ± 17.6 percentage of controls.
For `OCc1ccc(Cn2ccnc2)cc1` [compound 528, [4‐(1H‐imidazol‐1‐ylmethyl)phenyl]methanol], in that order: 81.2 percentage of controls and 90.8 ± 4.5 percentage of controls.
`OCc1ccc(Cn2cccn2)cc1` [compound 529, [4‐(1H‐pyrazol‐1‐ylmethyl)phenyl]methanol]: the “A549 Cells Alamar Blue” value in the experiment on A549 cells was 94 percentage of controls. Further, the “HeLa Cells Alamar Blue” value in the experiment with HeLa cells (setting [1]) is 85 ± 5.2 percentage of controls.
Taken in the same sequence, the figures for `Cn1ncc(CO)c1-c1ccccc1` [compound 530, (1‐methyl‐5‐phenyl‐1H‐pyrazol‐4‐yl)methanol] were 109.5 percentage of controls and 87.4 ± 6.2 percentage of controls.
`Cc1onc(-c2ccccc2)c1CO` [compound 534, (5‐methyl‐3‐phenyl‐4‐isoxazolyl)methanol]: the viability at 500 µM turned out to be 62.9% with A549 cells and 78.8 ± 15.6% in the experiment with HeLa cells (setting [2]).
`O=C(O)c1ccc(C(F)(F)F)cc1` [compound 539, 4‐(trifluoromethyl)benzoic acid]: the viability at 500 µM in the experiment on A549 cells is 104%; in the experiment on HeLa cells (setting [2]), 92.4 ± 8.2%.
For `OCc1ccc(Oc2ccccc2)o1` [compound 540, (5‐phenoxy‐2‐furyl)methanol], in that order: 57.7% and 13.7 ± 6.5%.
For the compound `CN(C)CCOc1ccc(C#N)cc1` [compound 542, 4‐[2‐(dimethylamino)ethoxy]benzonitrile], the viability at 500 µM is 69.7% with A549 cells and 91.6 ± 9.5% with HeLa cells (setting [2]).
As for `OCc1ccccc1-c1cccs1` [compound 543, (2‐thien‐2‐ylphenyl)methanol], the figures for the viability at 500 µM in the experiment on A549 cells and in the experiment with HeLa cells (setting [2]) were 56.5% and 73.9 ± 3.7%, respectively.
Taken in the same sequence, the figures for `OCc1ccc(-c2ccsc2)cc1` [compound 545, (4‐thien‐3‐ylphenyl)methanol] were 87.2% and 84.3 ± 13.2%.
On to `Cc1nc(-c2cccc(N)c2)cs1` [compound 546, 3‐(2‐methyl‐1,3‐thiazol‐4‐yl)aniline], for which the values for the viability at 500 µM in the experiment with A549 cells and in the experiment with HeLa cells (setting [2]) were 61.9% and 68.5 ± 8.2%, respectively.
`NC1CCN(Cc2ccccc2)CC1` [compound 548, 1‐benzylpiperidin‐4‐amine]: the viability at 500 µM in the experiment on A549 cells was found to be 89.3%; in the experiment on HeLa cells (setting [2]), 39.5 ± 10%.
For `Cc1cccc(N2CCNCC2)c1C` [compound 549, 1‐(2,3‐dimethylphenyl)piperazine], in that order: 13.6% and 10.1 ± 5.7%.
On to `COC(=O)c1scc(C)c1Cl` [compound 551, methyl 3‐chloro‐4‐methylthiophene‐2‐carboxylate], for which the “A549 Cells Alamar Blue” value in the experiment on A549 cells is listed as 104.9 percentage of controls. For the same compound, in the experiment on HeLa cells (setting [1]), the “HeLa Cells Alamar Blue” value is on record as 90.7 ± 10.3 percentage of controls.
For `OCc1csc(-c2ccccc2)n1` [compound 557, (2‐phenyl‐1,3‐thiazol‐4‐yl)methanol], the viability at 500 µM amounted to 78.4% in the experiment with A549 cells and 58.1 ± 13.4% in the experiment on HeLa cells (setting [2]).
As to `COc1ccccc1C1CCNCC1` [compound 560, 4‐(2‐methoxyphenyl)piperidine], the viability at 500 µM in the experiment on A549 cells was 63.7%; with HeLa cells (setting [2]), 20.2 ± 2.8%.
On to `CN1CCN(c2ccc(N)cc2)CC1` [compound 562, 4‐(4‐methylpiperazino)aniline], for which the viability at 500 µM with A549 cells was 17.5%; in the experiment on HeLa cells (setting [2]), 8.2 ± 6.5%.
With `Nc1nc(-c2ccc(O)cc2)cs1` [compound 565, 4‐(2‐amino‐1,3‐thiazol‐4‐yl)phenol], the viability at 500 µM in the experiment on A549 cells stood at 61.6%; with HeLa cells (setting [3]), 57.7 ± 17.7%.
Regarding `NS(=O)(=O)c1ccc(F)cc1F` [compound 576, 2,4‐difluorobenzenesulfonamide], the viability at 500 µM with A549 cells was 12.9%; with HeLa cells (setting [2]), 10.7 ± 9.3%.
Taken in the same sequence, the figures for `Oc1ccc(SC(F)(F)F)cc1` [compound 584, 4‐[(trifluoromethyl)thio]phenol] were 68.4% and 97.5 ± 15.9%.
`CCOC(=O)CCc1ccc(O)cc1` [compound 585, ethyl 3‐(4‐hydroxyphenyl)propanoate]: the results for the viability at 500 µM in the experiment on A549 cells and in the experiment with HeLa cells (setting [2]) were 61.7% and 63.1 ± 3.9%, respectively.
Take `Cn1nc(CO)cc1-c1cccs1` [compound 586, (1‐methyl‐5‐thien‐2‐yl‐1H‐pyrazol‐3‐yl)methanol]: the “A549 Cells Alamar Blue” value with A549 cells is given as 63.4 percentage of controls. In the experiment on HeLa cells (setting [1]), the “HeLa Cells Alamar Blue” value is given as 82 ± 15.2 percentage of controls.
`O=C(O)CC12CC3CC(CC(C3)C1)C2` [compound 588, 2‐(1‐adamantyl)acetic acid]: the viability at 500 µM with A549 cells was 85.4%; in the experiment on HeLa cells (setting [2]), 95.4 ± 14.1%.
Take `CC(=O)c1cc2cc(Cl)ccc2o1` [compound 589, 1‐(5‐chlorobenzo[b]furan‐2‐yl)ethan‐1‐one]: the “A549 Cells Alamar Blue” value in the experiment with A549 cells is 99.5 percentage of controls. Also, the “HeLa Cells Alamar Blue” value in the experiment with HeLa cells (setting [1]) is given as 95.8 ± 12.5 percentage of controls.
For the compound `OCc1csc2ccc(Cl)cc12` [compound 608, (5‐chloro‐1‐benzothiophen‐3‐yl)methanol], the values for the viability at 500 µM in the experiment with A549 cells and in the experiment on HeLa cells (setting [2]) were 63.8% and 78.3 ± 1%, respectively.
For `O=C(O)c1ccc(-c2cccnc2)cc1` [compound 612, 4‐pyrid‐3‐ylbenzoic acid], the viability at 500 µM in the experiment with A549 cells came out at 74.2%; in the experiment on HeLa cells (setting [3]), 77.2 ± 5.7%.
